From publication PMC6270106, “Chemical Constituents from the Leaves of Annona reticulata and Their Inhibitory Effects on NO Production” (Molecules, 2013)
Read-outs that look alike come from different tables or passages of the source.

What was measured:
[1] = tested on: LPS-induced iNOS-dependent NO production in RAW 264.7 cells; test: Inhibition of LPS-induced iNOS-dependent NO production (Griess nitrite assay); type: cell-based, murine; details: RAW 264.7, 100 ng/mL LPS, 24 h; for NO level: nitrite by Griess, in µM (unit assumed); for inhibition at 12.5 µM / inhibition at 25 µM / inhibition at 50 µM / inhibition at 100 µM / IC50: Mus musculus, RAW264.7; for inhibition at 12.5 µM: read-out: NO inhibition (% of control); for inhibition at 25 µM / inhibition at 50 µM / inhibition at 100 µM: read-out: NO inhibition (% of control) (converted)
Description: The isolated compounds 1–9 were subjected into the examination of their effects on LPS-induced iNOS-dependent NO production in RAW 264.7 cells. […] The inhibitory effects of 1, 4 and 9 were less obvious. […] Among the tested compounds, 2, and 5–8 belonged to the ent-kaurane diterpenoids noted for the occurrence in the Annona species.
NO production was indirectly assessed by measuring the nitrite levels in the cultured media and serum determined by a colorimetric method based on the Griess reaction. The cells were incubated with a test sample in the presence of LPS (100 ng/mL) at 37 °C for 24 h. Then, cells were dispensed into 96-well plates, and 100 μL of each supernatant was mixed with the same volume of Griess reagent (1% sulfanilamide, 0.1% naphthyl ethylenediamine dihydrochloride, and 5% phosphoric acid) and incubated at room temperature for 10 min, the absorbance was measured at 540 nm with a Micro-Reader (Molecular Devices). By using sodium nitrite to generate a standard curve, the concentration of nitrite was measured form absorbance at 540 nm.
Experimental results were presented as the mean ± standard deviation (SD) of three parallel measurements. Statistical comparisons were made by Student’s t-test. IC50 values were estimated using a non-linear regression algorithm (SigmaPlot 8.0; SPSS Inc. Chicago, IL, USA). Statistical significance is expressed as * p < 0.05, ** p < 0.01, and *** p < 0.001.

RAW 264.7 cells [2] = test: Cell viability (MTT) in the presence of LPS; details: RAW 264.7, 100 ng/mL LPS, 24 h; for Cell viability (% of control): MTT; for Cell toxicity (in words): 12.5–100 μM
Description: (§1) A murine macrophage cell line RAW264.7 (BCRC No. 60001) was purchased from the Bioresources Collection and Research Center (BCRC) of the Food Industry Research and Development Institute (Hsinchu, Taiwan). Cells were cultured in plastic dishes containing Dulbecco’s Modified Eagle Medium (DMEM, Sigma, St. Louis, MO, USA) supplemented with 10% fetal bovine serum (FBS, Sigma, USA) in a CO2 incubator (5% CO2 in air) at 37°C and subcultured every 3 days at a dilution of 1:5 using 0.05% trypsin–0.02% EDTA in Ca^2+-, Mg^2+- free phosphate-buffered saline (DPBS).
(§2) Cells (2 × 10^5) were cultured in 96-well plate containing DMEM supplemented with 10% FBS for 1 day to become nearly confluent. Then cells were cultured with samples in the presence of 100 ng/mL LPS for 24 h. After that, the cells were washed twice with DPBS and incubated with 100 μL of 0.5 mg/mL MTT for 2 h at 37 °C testing for cell viability. The medium was then discarded and 100 μL dimethyl sulfoxide (DMSO) was added. After 30-min incubation, absorbance at 570 nm was read using a microplate reader (Molecular Devices, Sunnyvale, CA, USA).

RAW 264.7 cells [3] = tested on: RAW 264.7 cells
Description: as §1, §2

[4] = tested on: LPS-induced RAW264.7 macrophages; set-up: method as in PMID 21211951; details: cited from earlier work
platelet aggregation = tested on: platelet aggregation; set-up: method as in PMID 12398544; details: isolated from the stems of A. squamosa; cited from earlier work
macrophages = tested on: macrophages; set-up: method as in PMID 23333629; details: by interfering with the activation of TAK1 and Akt, preventing NF-κB activation; cited from earlier work

SMILES | NO level ([1]; 12.5 μM) | NO level ([1]; 25 μM) | NO level ([1]; 50 μM) | NO level ([1]; 100 μM) | inhibition at 12.5 µM ([1]; 12.5 μM) | inhibition at 25 µM ([1]; 25 μM) | inhibition at 50 µM ([1]; 50 μM) | inhibition at 100 µM ([1]; 100 μM) | IC50 [1] | Cell viability (% of control) (RAW 264.7 cells [2]; 12.5 μM) | Cell viability (% of control) (RAW 264.7 cells [2]; 25 μM) | Cell viability (% of control) (RAW 264.7 cells [2]; 50 μM) | Cell viability (% of control) (RAW 264.7 cells [2]; 100 μM) | Inhibitory effect on NO production (in words) [1] | Cell toxicity (in words) (RAW 264.7 cells [2]) | further results
C[C@@]12CCC[C@](C)(C(=O)O)C1CCC13CC(CCC12)C(C(=O)O)C3 (stereo partly drawn) [Compound 8, 16α-hydro-ent-kauran-17,19-dioic acid] | 39.8 ± 1.2 | 35.4 ± 0.8 | 23.5 ± 0.9 | 14.4 ± 0.3 | 12.3 ± 2.6% | 21.9% | 48.2% | 68.3% | 54.5 ± 0.8 µM | 98.4 ± 3.2 % of control | 94.0 ± 2.6 % of control | 88.6 ± 2.6 % of control | 82.4 ± 1.2 % of control | – | – | melting point: 120 to 121 °C
CC[C@H](CC[C@@H](C)[C@H]1CC[C@H]2[C@@H]3C[C@@H](O)C4=CC(=O)CC[C@]4(C)[C@H]3CC[C@]12C)C(C)C [Compound 6, 6β-hydroxystigmast-4-en-3-one] | 37.0 ± 1.8 | 33.1 ± 2.4 | 22.9 ± 1.1 | 15.1 ± 0.3 | 18.5 ± 4% | 27.1% | 49.5% | 66.7% | 51.5 ± 0.5 µM | 94.8 ± 3.1 % of control | 83.7 ± 3.5 % of control | 83.5 ± 3.0 % of control | 81.3 ± 2.8 % of control | – | – | –
CC(=O)OCC1CC23CCC4[C@@](C)(CCC[C@]4(C)C(=O)O)C2CCC1C3 (stereo partly drawn) [Compound 7, 17-acetoxy-16β-ent-kauran-19-oic acid] | 42.6 ± 0.7 | 40.6 ± 2.8 | 23.7 ± 0.2 | 14.3 ± 0.3 | 6.2 ± 1.5% | 10.6% | 47.7% | 68.5% | 55.5 ± 0.3 µM | 98.6 ± 3.1 % of control | 93.6 ± 4.0 % of control | 92.5 ± 2.8 % of control | 83.7 ± 1.6 % of control | – | – | –
CC[C@H](CC[C@@H](C)[C@H]1CC[C@H]2[C@@H]3CC=C4C[C@@H](O)CC[C@]4(C)[C@H]3CC[C@]12C)C(C)C [Compound 4, β-sitosterol] | 38.4 ± 0.7 | 38.6 ± 3.3 | – | – | 15.5 ± 1.5% | 15.1% | – | – | – | 82.8 ± 2.7 % of control | 80.7 ± 3.8 % of control | 65.3 ± 2.3 % of control | 55.8 ± 2.7 % of control | less obvious | Some cell toxicity was observed | –
C=C(C)C(CC[C@@H](CO)[C@H]1CC[C@@]2(C)C3CCC4C(C)(C)[C@@H](O)[C@H](O)C[C@@]45C[C@@]35CC[C@]12C)C(C)C (stereo partly shown) [Compound 1, annonaretin A] | 36.6 ± 1.9 | 33.5 ± 0.9 | – | – | 19.3 ± 4.2% | 26.2% | – | – | – | – | – | – | – | less obvious | – | Cell viability (% of control) (RAW 264.7 cells [3]; 12.5 µM): 88.0 ± 1.5 % of control; Cell viability (% of control) (RAW 264.7 cells [3]; 25 µM): 81.2 ± 1.8 % of control; Cell viability (% of control) (RAW 264.7 cells [3]; 50 µM): 73.0 ± 3.6 % of control; Cell viability (% of control) (RAW 264.7 cells [3]; 100 µM): 66.9 ± 5.5 % of control
C=C1C[C@@]23CC[C@H]4[C@@](C)(CCC[C@@]4(C)C(=O)O)[C@@H]2CC[C@@H]1C3 [Compound 2, kaurenoic acid] | 34.3 ± 4.7 | 35.1 ± 1.2 | 22.7 ± 0.5 | – | 24.5 ± 10.2% | 22.7% | 50% | – | 50 ± 0.3 µM | 98.0 ± 2.2 % of control | 91.0 ± 3.6 % of control | 82.9 ± 1.2 % of control | 65.7 ± 8.6 % of control | – | Some cell toxicity was observed | Inhibition of NO production, prostaglandin E2 release, cyclooxygenase-2 and inducible nitric oxide synthase expression (in words) [4]: inhibit NO production
C[C@@]12CCC[C@](C)(C=O)C1CCC13CC(CCC12)C(C(=O)O)C3 (stereo partly drawn) [Compound 5, 16α-hydro-19-al-ent-kauran-17-oic acid] | 38.3 ± 1.3 | 33.1 ± 1.0 | 22.1 ± 1.5 | 14.8 ± 0.7 | 15.5 ± 2.8% | 27.1% | 51.4% | 67.3% | 48.6 ± 1.2 µM | 98.9 ± 5.2 % of control | 96.5 ± 9.2 % of control | 95.9 ± 8.6 % of control | 80.2 ± 5.7 % of control | – | – | Anti-platelet aggregation activity (in words) (platelet aggregation): exhibit anti-platelet aggregation activity
CC1(C)CC[C@]2(C)CC=C3[C@]4(C)CC[C@H]5C(C)(C)[C@@H](O)CC[C@]5(C)[C@H]4CC[C@@]3(C)[C@@H]2C1 [Compound 3, taraxerol] | 38.5 ± 2.3 | 39.5 ± 0.6 | 35.6 ± 0.9 | 22.6 ± 0.4 | 15.2 ± 5% | 13.1% | 21.6% | 50.1% | 99.8 ± 0.4 µM | 93.5 ± 1.8 % of control | 92.6 ± 3.1 % of control | 88.7 ± 1.8 % of control | 81.4 ± 2.3 % of control | – | – | Expression of proinflammatory mediators (in words) (macrophages): downregulate the expression of proinflammatory mediators
COc1ccc([C@@H]2CC(=O)c3ccc(OC)cc3O2)cc1 [Compound 9, (2S)-di-O-methylquiritigenin] | 42.0 ± 1.2 | 40.4 ± 0.7 | 25.9 ± 2.3 | – | 7.5 ± 2.7% | 11% | 42.9% | – | – | 99.9 ± 4.8 % of control | 90.0 ± 1.6 % of control | 82.6 ± 2.7 % of control | 76.2 ± 1.1 % of control | less obvious | Some cell toxicity was observed | –
